Assay results published in the supplement of paper PMC10307832.

Experiments:
Experiment in all cases: relative viability (nuclei count vs DMSO), 5 days (fraction); higher = more cells survive
MK-8033 + Luminespib = compound: Cn1cc(-c2cnc3ccc4ccc(CS(=O)(=O)NCc5ccccn5)cc4c(=O)c3c2)cn1 [MK-8033] + CCNC(=O)c1noc(-c2cc(C(C)C)c(O)cc2O)c1-c1ccc(CN2CCOCC2)cc1 [Luminespib] (partner 0.01 µM)
Summary of the method: (§1)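 Each reported value is a median over duplicate plates. It expresses relative viability: treated-well nuclei count divided by vehicle-well nuclei count. Lung cancer cell lines in 1536-well plates were dosed by pin tool a day after seeding, alone with one drug or with a fixed anchor-drug dose plus five library-drug doses (not always all listed) in √10 steps, and nuclei were counted after 5 days.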

RU-SKI 43 + Crizotinib = compound: CC[C@@H](C)CNCC(=O)N1CCC2=C([C@@H]1COC3=CC=CC(=C3)C)C=CS2 [RU-SKI 43] + C[C@@H](Oc1cc(-c2cnn(C3CCNCC3)c2)cnc1N)c1c(Cl)ccc(F)c1Cl [Crizotinib] (partner 1 µM)
Summary of the method: as §1

Irinotecan + Decitabine = compound: CCc1c2c(nc3ccc(OC(=O)N4CCC(N5CCCCC5)CC4)cc13)-c1cc3c(c(=O)n1C2)COC(=O)[C@]3(O)CC [Irinotecan] + Nc1ncn([C@H]2C[C@H](O)[C@@H](CO)O2)c(=O)n1 [Decitabine] (partner 2 µM)
Summary of the method: as §1

RU-SKI 43 + Bortezomib = compound: CC[C@@H](C)CNCC(=O)N1CCC2=C([C@@H]1COC3=CC=CC(=C3)C)C=CS2 [RU-SKI 43] + CC(C)C[C@H](NC(=O)[C@H](Cc1ccccc1)NC(=O)c1cnccn1)B(O)O [Bortezomib] (partner 0.002 µM)
Summary of the method: as §1

| Cell Line | relative viability (MK-8033 + Luminespib; first compound 0.02 µM) | relative viability (MK-8033 + Luminespib; first compound 0.06325 µM) | relative viability (MK-8033 + Luminespib; first compound 0.2 µM) | relative viability (MK-8033 + Luminespib; first compound 0.6325 µM) | relative viability (MK-8033 + Luminespib; first compound 2 µM) | relative viability (RU-SKI 43 + Crizotinib; first compound 0.1 µM) | relative viability (RU-SKI 43 + Crizotinib; first compound 0.3162 µM) | relative viability (RU-SKI 43 + Crizotinib; first compound 1 µM) | relative viability (RU-SKI 43 + Crizotinib; first compound 3.162 µM) | relative viability (RU-SKI 43 + Crizotinib; first compound 10 µM) | relative viability (Irinotecan + Decitabine; first compound 0.6325 µM) | relative viability (Irinotecan + Decitabine; first compound 2 µM) | relative viability (Irinotecan + Decitabine; first compound 6.325 µM) | relative viability (Irinotecan + Decitabine; first compound 20 µM) | relative viability (RU-SKI 43 + Bortezomib; first compound 0.1 µM) | relative viability (RU-SKI 43 + Bortezomib; first compound 0.3162 µM) | relative viability (RU-SKI 43 + Bortezomib; first compound 1 µM) | relative viability (RU-SKI 43 + Bortezomib; first compound 3.162 µM) | relative viability (RU-SKI 43 + Bortezomib; first compound 10 µM) |
| --- | --- | --- | --- | --- | --- | --- | --- | --- | --- | --- | --- | --- | --- | --- | --- | --- | --- | --- | --- |
| 201T | 0.986 | 1.07 | 0.957 | 1.06 | 1.03 | 1.02 | 0.991 | 1.06 | 1.06 | 0.992 | 0.714 | 0.615 | 0.295 | 0.298 | 1.09 | 1.09 | 1.17 | 1.12 | 1.07 |
| NCI-H1650 | 0.193 | 0.205 | 0.204 | 0.203 | 0.181 | 0.968 | 0.916 | 0.971 | 0.991 | 0.67 | 0.322 | 0.296 | 0.276 | 0.207 | 0.204 | 0.208 | 0.222 | 0.209 | 0.192 |
| NCI-H1734 | 0.173 | 0.177 | 0.176 | 0.182 | 0.17 | 0.724 | 0.709 | 0.745 | 0.652 | 0.547 | – | 0.27 | 0.18 | 0.197 | 0.971 | 1.08 | 0.917 | 0.824 | 0.789 |
| SW 1573 | 0.178 | 0.206 | 0.719 | 0.366 | 0.185 | 1 | 0.767 | 0.799 | 0.768 | 0.723 | 0.445 | 0.511 | 0.173 | 0.0927 | 1.13 | 1.42 | 1.16 | 0.947 | 0.901 |
| NCI-H1993 | 0.733 | 0.838 | 0.827 | 0.964 | 0.73 | 0.839 | 0.882 | 0.84 | 0.945 | 0.758 | – | 0.581 | 0.542 | 0.6 | 1.04 | 1.01 | 1.15 | 1.1 | 0.756 |
| NCI-H1755 | 0.371 | 0.387 | 0.411 | 0.282 | 0.467 | 0.809 | 1.15 | 0.953 | 0.889 | 0.74 | 0.58 | 0.503 | 0.427 | 0.491 | 0.978 | 1.14 | 1.04 | 0.941 | 0.986 |
| PC-14 | 0.125 | 0.128 | 0.131 | 0.174 | 0.224 | 0.827 | 0.891 | 0.92 | 0.804 | 0.749 | 0.184 | 0.182 | 0.12 | 0.111 | 0.793 | 1.19 | 0.942 | 0.848 | 0.66 |
| HCC-827 | 0.43 | – | 0.591 | 0.59 | 1.07 | 0.956 | 1.01 | 0.987 | 0.916 | 0.602 | 0.337 | 0.326 | 0.174 | 0.221 | 0.989 | 1.07 | 1.18 | 1.11 | 1.02 |
